The text below walks through data of US11459624B2, “Compositions and methods for determining resistance to inhibitors of virus entry using recombinant virus assays” (MONOGRAM BIOSCIENCES, INC., priority 2004, dated 2022).

The test system of this experiment is HIV-1. The experiment is described as follows: Phenotypic HIV-1 entry inhibitor susceptibility assay (pseudotyped virus, single-round infection, luciferase readout). In kind it is cell-based. To be noted: for maximum percentage of inhibition, resistant viruses relative to sensitive viruses / IC50 for inhibition of entry, resistant HIV relative to sensitive reference virus: log-sigmoid inhibition curves; for maximum percentage of inhibition, resistant viruses relative to sensitive viruses / IC50 for inhibition of entry, resistant HIV relative to sensitive reference virus / completeness of inhibition of entry of resistant virus at high inhibitor concentrations: viruses resistant to the inhibitor; for maximum percentage of inhibition, resistant viruses relative to sensitive viruses: FIG. 6, FIG. 8; for IC50 for inhibition of entry, resistant HIV relative to sensitive reference virus: FIG. 5. On the procedure: Susceptibility assays for HIV-1 entry inhibitors were performed using packaging host cells consisting of the human embryonic kidney cell line 293 (Cell Culture Facility, UC San Francisco, SF, Calif.) and target host cells consisting of a human osteosarcoma (HOS) cell line expressing CD4 (HT4) plus CCR5, and CXCR4, or astrocytoma (U-87) cell lines expressing either CD4 and CCR5 or CD4 and CXCR4.
Drug susceptibility testing was performed using pHIVenv and pHIVluc or pHIVlucΔU3. Pseudotyped HIV particles containing envelope proteins encoded by the subject derived segment were produced by transfecting a packaging host cell (HEK 293) with resistance test vector DNA. Virus particles were collected about 48 h after transfection and were used to infect target cells (HT4/CCR5/CXCR4, or U-87/CD4/CXCR4, or U-87/CD4/CCR5) that express the HIV receptor (i.e. CD4) and co-receptors (i.e. CXCR4, CCR5). After infection (~72 h) the target cells are lysed and luciferase activity is measured. HIV must complete one round of replication to successfully infect the target host cell and produce luciferase activity. The amount of luciferase activity detected in the infected cells is used as a direct measure of “infectivity” (FIGS. 1 and 2). […] Drug susceptibility is assessed by comparing the infectivity in the absence of drug to infectivity in the presence of drug.
Packaging host cells were seeded in 10-cm-diameter dishes and were transfected one day after plating with pHIVenv and pHIVluc or pHIVlucΔU3. Transfections were performed using a calcium-phosphate co-precipitation procedure. The cell culture media containing the DNA precipitate was replaced with fresh medium, from one to 24 hours, after transfection. Cell culture media containing viral particles was typically harvested 2 days after transfection and was passed through a […] filter. Before infection, target cells were plated in cell culture media. […] Typically, 3 days after infection target cells were assayed for luciferase activity using the Steady-Glo reagent (Promega) and a luminometer.
However, any such susceptibility assay known by one of skill in the art can in principle be used in the methods for determining phenotypic drug susceptibility. Drug susceptibility can be plotted, for example, as percent inhibition versus log10 drug concentration and defined based on, for example, the IC50 and percent inhibition at the highest drug concentration. […] In this example, the phenotypic drug susceptibility assay of Example 1 was used to determine a log-sigmoid curve showing the resistance of mutant HIV to SCH-C, TNX-355, T-20, and AMD-3100.

Regarding “TNX-355: HIV entry inhibitor (Tanox Inc.), non-competitive”, the “maximum percentage of inhibition, resistant viruses relative to sensitive viruses” value is “reduced maximum percentage of inhibition”.

For `CCO/N=C(\c1ccc(Br)cc1)C1CCN(C2(C)CCN(C(=O)c3c(C)cc[n+]([O-])c3C)CC2)CC1` [SCH-C], the “maximum percentage of inhibition, resistant viruses relative to sensitive viruses” value was “reduced maximum percentage of inhibition”.

`c1cc(CN2CCCNCCNCCCNCC2)ccc1CN1CCCNCCNCCCNCC1` [AMD-3100]: the “IC50 for inhibition of entry, resistant HIV relative to sensitive reference virus” value was “increased IC50” and the “completeness of inhibition of entry of resistant virus at high inhibitor concentrations” value is given as “can be completely inhibited”.

Turning to enfuvirtide, the “IC50 for inhibition of entry, resistant HIV relative to sensitive reference virus” value was “increased IC50” and the “completeness of inhibition of entry of resistant virus at high inhibitor concentrations” value is recorded as “can be completely inhibited”. Besides, the “susceptibility of viruses with drug resistance mutations in the gp41 envelope protein” value (cells expressing CD4, CCR5 and CXCR4, isogenic viruses with one or two gp41 mutations, FIG. 4B) is given as “reduced susceptibility”.
